Test results reported in US20040106802A1, “Novel compounds and therapeutic uses thereof” (TORRENT PHARMACEUTICALS LTD., priority 2002, published 2004).
Where a name gives a salt, the structure may show the parent alone.

Molecular target: T1, Porcine DPP-IV (Sus scrofa, UniProt P22411)
T1 construct: purchased Sigma-Aldrich Germany
T1 sequence (P22411 whole entry): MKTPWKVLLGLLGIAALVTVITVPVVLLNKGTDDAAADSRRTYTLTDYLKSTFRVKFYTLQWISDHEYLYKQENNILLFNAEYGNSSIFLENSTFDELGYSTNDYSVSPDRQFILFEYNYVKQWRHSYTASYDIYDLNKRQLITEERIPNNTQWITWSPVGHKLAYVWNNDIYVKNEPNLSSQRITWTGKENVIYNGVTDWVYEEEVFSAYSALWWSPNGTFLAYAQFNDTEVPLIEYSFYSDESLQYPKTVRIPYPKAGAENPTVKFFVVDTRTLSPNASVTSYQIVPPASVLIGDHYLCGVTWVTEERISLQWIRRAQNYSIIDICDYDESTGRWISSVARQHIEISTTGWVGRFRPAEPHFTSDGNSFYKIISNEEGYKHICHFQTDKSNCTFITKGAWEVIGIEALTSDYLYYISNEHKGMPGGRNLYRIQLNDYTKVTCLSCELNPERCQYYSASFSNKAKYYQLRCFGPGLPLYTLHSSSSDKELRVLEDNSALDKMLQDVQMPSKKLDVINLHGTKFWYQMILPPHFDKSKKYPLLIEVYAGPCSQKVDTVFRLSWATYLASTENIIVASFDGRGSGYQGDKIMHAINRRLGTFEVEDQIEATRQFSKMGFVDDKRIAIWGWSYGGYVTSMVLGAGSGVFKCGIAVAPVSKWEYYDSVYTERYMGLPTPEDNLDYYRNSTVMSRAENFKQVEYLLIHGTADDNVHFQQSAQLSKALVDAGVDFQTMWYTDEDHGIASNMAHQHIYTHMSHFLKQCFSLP
Experiment: Assay of DPP-IV enzyme inhibitory activity (spectrophotometric, Gly-Pro-pNA cleavage)
Type: biochemical
Details: Porcine DPP-IV, Gly-Pro-pNA substrate, 30° C.; mean ± SD of three experiments except compound Nos. 133 & 139; read-out: IC50 (μM) Mean ± SD, inhibitory activity on DPP-IV enzyme activity
Procedure: Assay of DPP-IV Enzyme Inhibitory Activity.
The assay method is a modified method (as described by Welch et al, 1998) based on spectrophotometric determination of the product formed by penultimate proline cleaving activity of the enzyme.
Assay protocol involves incubation of the enzyme dipeptidyl peptidase IV with the test substance at 30° C. for 30 min followed by addition of this reaction mixture to the substrate Gly-Pro-pNA that was equilibrated at 30° C. for 2 min. The enzyme cleaves the substrate at penultimate proline and releases p-nitroanilide, the optical density of which is measured at 385 nm. The formation of p-nitroanilide will be reduced in the presence of inhibitor. […] The activity of molecule is expressed in terms of % inhibition. At least three different concentrations were tried out for each of the test substances. The percentage inhibitions for each of the concentrations were plotted and an IC50 of the test compound was worked out. The enzyme inhibitory activity of different test compounds were compared based on the IC50 values.
The percentage inhibition % I, is calculated using the formula:
% I=[(1−vi/v0)]*100 where vi and v0 are the Vmax values with and without the test substance, respectively.
Substrate solution: 0.5 mM in 45 mM phosphate buffer
Substrate used: Gly-Pro-p-nitroanilide (Source: Sigma-Aldrich Co. Germany)
3.288 mg substrate in 1 ml 45 mM phosphate buffer was prepared as stock solution. 0.25 ml of this stock solution was diluted to 5 ml to get 0.5 mM substrate solution (90 μl to be added in each well). The stock solution of the substrate was used within three days of preparation.
Enzyme solution: Porcine DPP-IV (Sigma-Aldrich Germany) was used throughout the study. 0.4 mU in 80 μl of Tris. HCl buffer was prepared. Fresh solutions were prepared everyday for the assays.
Various concentrations of inhibitor were used: 0.391 μM, 0.781 μM, and 3.125 μM. Solutions of inhibitor were prepared and used on the same day.
280 μl of enzyme solution (0.4-mU/80 μl in Tris HCl buffer) was added to the eppendorf containing 70 μl solution of inhibitor or vehicle and mixed. This reaction mixture was incubated for 30 min at 30° C. The 96 well plate containing substrate solution was thermally equilibrated in the spectrophotometer for 2 min at 30° C. Later 100 μl of the enzyme-inhibitor pre-incubation solution was added to respective wells in a 96 well plate. Each concentration of the inhibitor was tested in triplicates.
The rate of change in UV absorbance (in presence of various concentrations of the inhibitor) was measured at 385 nm, with respect to wells containing only 0.5 mM substrate in 45 mM phosphate buffer as blank at every 10 min for 2 hours after adding enzyme-inhibitor mixture to wells containing substrate solution.
Compound `N#CC1CCCN1C(=O)CN(N)C1CCCc2ccccc21` (stereo not shown) [Compound No. 48, 1-[1-Oxo-2-(1-tetralinyl)hydrazino]ethyl-2-cyanopyrrolidine trifluoroacetate] has an IC50 of 45.2 ± 1.21 µM.
Compound `CC1CCC(C(=O)N2CCC(N(N)CC(=O)N3CSCC3C#N)CC2)CC1` (stereo not shown) [Compound No. 65, 3-[1-Oxo-2-[1-(1-(4-methylcyclohexylcarbonyl)-piperidin-4-yl)]hydrazino]ethyl-4-cyanothiazolidine trifluoroacetate] has an IC50 of 0.87 ± 0.06 µM.
In the case of `N#CC1CCCN1C(=O)CN(N)C1CCN(S(=O)(=O)c2ccc(Cl)cc2)CC1` (stereo not shown) [Compound No. 73, [1-Oxo-2-(1-(1-(4-chlorophenylsulphonyl)-piperidin-4-yl)-hydrazino)]ethyl-2-cyanopyrrolidine trifluoroacetate], the IC50 is reported as 48.9 ± 1.81 µM.
Work on `N#CC1CSCN1C(=O)CN(N)C12CC3CC(CC(C3)C1)C2` (stereo not shown) [Compound No. 75, 3-[1-Oxo-2-(1-(1-adamantanyl) hydrazino)]ethyl-4-cyanothiazolidine trifluoroacetate] yielded an IC50 of 0.31 ± 0.05 µM.
`N#CC1CSCN1C(=O)CN(N)C1CCN(CC(=O)NCc2ccccc2F)CC1` (stereo not shown) [compound 122, 3-[1-oxo-2-(1-(1-(2-oxo-2-(2-flurobenzyl)aminoethyl)piperidine-4-yl))hydrazino]ethyl-4-cyanothiazolidine, bis-trifluoroacetate] showed an IC50 of 0.51 ± 0.05 µM.
With `CC1CCC(NN(C)CC(=O)N2CSCC2C#N)CC1` (stereo not shown) [Compound No. 69, 3-[1-Oxo-2-(1-methyl-2-(4-methylcyclohexyl) hydrazino)]ethyl-4-cyanothiazolidine] the IC50 was 69 ± 10.1 µM.
Work on `Cc1nc(NC(=O)CN2CCC(N(N)CC(=O)N3CSCC3C#N)CC2)sc1C` (stereo not shown) [compound 145, trihydrochloride] yielded an IC50 of 0.715 ± 0.06 µM.
Work on `N#CC1CCCN1C(=O)CNN` (stereo not shown) [Compound No. 4, 1-[1-Oxo-2-(1-hydrazino)]ethyl-2-cyano pyrrolidine trifluoroacetate] yielded an IC50 of 88.6 ± 18.1 µM.
`CCNN(CC(=O)N1CSCC1C#N)C1CCC(C)CC1` (stereo not shown) [Compound No. 42, 3-[1-Oxo-2-(1-(4-methylcyclohexyl)-2-ethyl)hydrazino]ethyl-4-cyanothiazolidine trifluoroacetate] showed an IC50 of 0.53 ± 0.09 µM.
`N#CC1CSCN1C(=O)CN(N)c1ccccc1` (stereo not shown) [Compound No. 9, 3-[1-Oxo-2-((1-phenyl)hydrazino)]ethyl-4-cyano Thiazolidine Trifluoroacetate] gave an IC50 of 6.18 ± 0.88 µM.
Compound `CC(C)NN(CC(=O)N1CSCC1C#N)C1CCC(NS(C)(=O)=O)CC1` (stereo not shown) [Compound No. 84, 3-[1-Oxo-2-(1-(1-methanesulphonylamino-4-cyclohexyl)-2-isopropyl) hydrazino]ethyl-4-cyanothiazolidine trifluoroacetate] has an IC50 of 5.78 ± 0.18 µM.
For `N#CC1CSCN1C(=O)CNN` (stereo not shown) [Compound No. 15, 3-[1-Oxo-2-(1-hydrazino)]ethyl-4-cyano thiazolidine trifluoroacetate], the IC50 was 41.9 ± 11.6 µM.
In the case of `CC1CCC(CN(N)CC(=O)N2CCCC2C#N)CC1` (stereo not shown) [Compound No. 39, 1-[1-Oxo-2-(1-(4-methylcyclohexylmethyl)hydrazino)]ethyl-2-cyanopyrrolidine trifluoroacetate], the IC50 is reported as 50.4 ± 4.59 µM.
`N#CC1CSCN1C(=O)CN(N)C1CCC(NS(=O)(=O)c2ccc(Cl)cc2)CC1` (stereo not shown) [Compound No. 82] showed an IC50 of 0.66 ± 0.1 µM.
In the case of `Cc1ccc(S(=O)(=O)N2CCC(N(N)CC(=O)N3CSCC3C#N)CC2)cc1` (stereo not shown) [Compound No. 55, 3-[1-Oxo-2-(1-(1-(4-methylphenylsulphonyl)-4-piperidinyl)-hydrazino)]ethyl-4-cyanothiazolidine trifluoroacetate], the IC50 is reported as 2.7 ± 0.16 µM.
`CC1CCC(N(N)CC(=O)N2CS(=O)(=O)CC2C#N)CC1` (stereo not shown) [Compound No. 67, 1,1-Dioxo-3-[1-oxo-2-(1-(4-methylcyclohexyl)hydrazino)]ethyl-4-cyanothiazolidine trifluoroacetate] gave an IC50 of 72.5 ± 7.05 µM.
`CCNN(CC(=O)N1CSCC1C#N)C(C)C` (stereo not shown) [Compound No. 80, 3-[1-Oxo-2-(1-isopropyl-2-ethyl)-hydrazino]-ethyl-4-cyanothiazolidine trifluoroacetate] gave an IC50 of 2.27 ± 0.19 µM.
`N#CC1CCCN1C(=O)CN(N)c1ccccc1` (stereo not shown) [Compound No. 3, 1-[1-Oxo-2-((1-phenyl)-hydrazino)] ethyl-2-cyano pyrrolidine trifluoroacetate] gave an IC50 of 34.1 ± 4.57 µM.
`N#CC1CSCN1C(=O)CN(N)C1CCC(NCC(=O)Nc2ccc(Cl)cc2)CC1` (stereo not shown) [Compound No. 113, 3-[1-oxo-2-[1-(4-(2-oxo-2-(4-chlorophenyl)aminoethyl)aminocyclohex-1-yl)]hydrazino]ethyl-4-cyanothiazolidine bis-trifluoroacetate] gave an IC50 of 1.06 ± 0.3 µM.
For `CC1CCC(N(CC(=O)N2CSCC2C#N)NC2CCN(Cc3cccnc3)CC2)CC1` (stereo not shown) [Compound No. 53, 3-[1-Oxo-2-[1-(4-methylcyclohexyl)-2-(1-(3-pyridinylmethyl)-4-piperidinyl)]hydrazino]ethyl-4-cyanothiazolidine], the IC50 was 16.7 ± 2.07 µM.
For `N#CC1CCCN1C(=O)CN(N)c1ccccn1` (stereo not shown) [Compound No. 27, 1-[1-Oxo-2-(1-(2-Pyridyl)-hydrazino)]ethyl-2-cyano pyrrolidine bis-trifluoroacetate], the IC50 was 43 ± 2.76 µM.
`N#CC1CSCN1C(=O)CN(N)C1CCN(CCC(=O)NC2CC2)CC1` (stereo not shown) [compound 132] gave an IC50 of 1.77 ± 0.167 µM.
Work on `N#CC1CSCN1C(=O)CN(N)C1CCCCCC1` (stereo not shown) [Compound No. 28, 3-[1-Oxo-2-((1-Cycloheptyl)-hydrazino)] ethyl-4-cyano thiazolidine trifluoroacetate] yielded an IC50 of 2.29 ± 0.11 µM.
`CCCC1CCC(N(N)CC(=O)N2CSCC2C#N)CC1` (stereo not shown) [Compound No. 60, 3-[1-Oxo-2-(1-(4-npropylcyclohexyl) hydrazino)]ethyl-4-cyanothiazolidine trifluoro acetate] gave an IC50 of 0.69 ± 0.03 µM.
Work on `N#CC1CSCN1C(=O)CN(N)C1CCN(CC(=O)Nc2ccccn2)CC1` (stereo not shown) [compound 136, 3-[1-oxo-2-(1-(1-(2-oxo-2-(pyridin-2-yl)aminoethyl)piperidine-4-yl))hydrazino]ethyl-4-cyanothiazolidine, tris-trifluoroacetate] yielded an IC50 of 0.21 ± 0.004 µM.
Compound `CC(C)NN(CC(=O)N1CCCC1C#N)C1CCCCC1` (stereo not shown) [Compound No. 38, 1-[1-Oxo-2-(1-cyclohexyl-2-isopropyl)hydrazino]ethyl-2-cyano pyrrolidine] has an IC50 of 96.9 ± 23 µM.
Compound `CN(CC(=O)N1CSCC1C#N)NC1CCN(S(=O)(=O)c2ccc(Cl)cc2)CC1` (stereo not shown) [Compound No. 71, 3-[1-Oxo-2-[1-methyl-2-(1-(4-chlorophenylsulphonyl)-piperidin-4-yl)]-hydrazino]ethyl-4-cyanothiazolidine] has an IC50 of 86.2 ± 5.3 µM.

System: not listed separately
Experiment: In-vitro free radical scavenging activity using DPPH free radical
Details: Concentration 12.5 μM; 30° C., 30 minutes, 515 nm
Text: Free Radical Scavenging Activity:
To determine the in-vitro free radical scavenging activity of compounds of general formula-I on 2,2,-diphenyl-1-picrylhydrazyl (DPPH)radical (Ref: W. Brand-Williams, M. E. Cuvelier, C. Berset “Use of a free radical method to evaluate antioxidant activity”, Lebensm.- Wiss.u.Technol.,1995,28,Nr.1:25-30).
To evaluate the free radical scavenging activity of compounds they are allowed to react with stable radical DPPH*. In its radical form, DPPH* absorbed at the characteristic wave length of 515 nm, but upon reduction by an antioxidant or radical scavenger (AH), the absorption disappears.
10^−4M solution of DPPH* was prepared in methanol.
Various concentrations (10 mM, 1 mM, 0.5 mM, 0.25 mM and 0.125 mM) of drug solutions were prepared in methanol.
900 μl of DPPH radical solution was added to an eppendorf tube. To it was added 100 μl of methanol.
900 μl of DPPH radical solution was added to an eppendorf tube. To it was added 100 μl of various concentrations of drug solutions in methanol.
The absorbance of control and test samples was recorded after incubation at 30° C. for 30 minutes, at 515 nm taking methanol as blank.
The percent antioxidant activity was calculated according to the formula:
% Antioxidant activity=100−[O.D of test sample/O.D of control*100]
For `N#CC1CSCN1C(=O)CN(N)C1CCC(NC(=O)c2ccc(F)cc2)CC1.O=C(O)C(F)(F)F` (stereo not shown) [Compound No. 100], the “% Activity (antioxidant, DPPH)” value was 31.14%.

Same assay, conditions: Concentration 25 μM; 30° C., 30 minutes, 515 nm
For `N#CC1CSCN1C(=O)CN(N)C1CCC(NC(=O)c2ccc(F)cc2)CC1.O=C(O)C(F)(F)F` (stereo not shown) [Compound No. 100], the “% Activity (antioxidant, DPPH)” value was 41.49%.

Same assay, conditions: Concentration 50 μM; 30° C., 30 minutes, 515 nm
With `N#CC1CSCN1C(=O)CN(N)C1CCC(NC(=O)c2ccc(F)cc2)CC1.O=C(O)C(F)(F)F` (stereo not shown) [Compound No. 100] the “% Activity (antioxidant, DPPH)” value was 59.54%.

Same assay, conditions: Concentration 100 μM; 30° C., 30 minutes, 515 nm
For `N#CC1CSCN1C(=O)CN(N)C1CCC(NC(=O)c2ccc(F)cc2)CC1.O=C(O)C(F)(F)F` (stereo not shown) [Compound No. 100], the “% Activity (antioxidant, DPPH)” value was 77.75%.
